Literature values, collected in patent EP2179733A1, “PHARMACEUTICAL COMPOSITION COMBINING AN ANTIMICROBIAL AGENT AND A SELECTIVE ENKEPHALINASE ENZYME INHIBITOR, WHICH CAN BE USED TO CONTROL AND TREAT ACUTE BACTERIAL DIARRHOEA” (World Trade Import-Export, WTIE A.G., priority 2007, dated 2009).

Tests used:
plasmatic enkephalinase = target: T1, plasmatic enkephalinase (Homo sapiens, UniProt P08473)
T1 construct: from tissue; host or cells: plasma after oral administration of Racecadotril
T1 sequence (P08473 whole entry): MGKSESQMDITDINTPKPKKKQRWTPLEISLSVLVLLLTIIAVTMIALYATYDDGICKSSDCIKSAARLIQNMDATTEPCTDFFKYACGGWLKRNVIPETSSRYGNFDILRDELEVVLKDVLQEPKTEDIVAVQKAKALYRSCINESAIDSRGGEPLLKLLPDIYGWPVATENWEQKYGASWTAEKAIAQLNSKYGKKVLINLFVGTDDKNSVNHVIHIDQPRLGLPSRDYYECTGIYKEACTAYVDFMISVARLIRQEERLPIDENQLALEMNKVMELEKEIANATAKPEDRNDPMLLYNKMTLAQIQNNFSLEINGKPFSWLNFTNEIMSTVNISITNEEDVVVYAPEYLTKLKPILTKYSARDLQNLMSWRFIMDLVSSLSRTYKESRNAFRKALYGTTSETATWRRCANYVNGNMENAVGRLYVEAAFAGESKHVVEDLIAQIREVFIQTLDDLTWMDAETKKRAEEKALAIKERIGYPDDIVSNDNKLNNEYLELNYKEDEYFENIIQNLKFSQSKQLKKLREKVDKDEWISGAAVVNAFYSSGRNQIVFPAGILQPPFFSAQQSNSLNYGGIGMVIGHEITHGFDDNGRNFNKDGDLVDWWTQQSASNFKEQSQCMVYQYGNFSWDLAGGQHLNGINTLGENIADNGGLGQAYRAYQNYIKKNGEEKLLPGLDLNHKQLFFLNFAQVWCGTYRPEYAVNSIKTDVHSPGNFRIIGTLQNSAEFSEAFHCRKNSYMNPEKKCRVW

## CC(=O)SCC(Cc1ccccc1)C(=O)NCC(=O)OCc1ccccc1 (stereo not drawn) [Racecadotril]
Plasmatic enkephalinase; 1.5 mg/kg oral doses
  duration of inhibiting effect over plasmatic enkephalinase: about 8 hours
  maximum enzymatic inhibition level: about 90%
Plasmatic enkephalinase; oral administration
  start of plasmatic enkephalinase inhibiting effect after administration: 30 min
  time to maximum activity: 2 h
Plasmatic enkephalinase; with food
  delay of maximum activity when administered with food: about one and half
In vivo
  administered dose distributed in tissues: 1%
  mean life: about 3 hours
Oral administration
  time to maximum concentration from administration: 60 min
With food
  bioavailability when administered with food: not modified
